Type in all cases: in vivo
One assay concerns rice (Oryza sativa). Nature of the assay: Test C flooded paddy test: rice. The following applies: scale 0 to 100 (0 no effect, 100 complete control); for plant injury at 62 g/ha / plant injury at 125 g/ha / plant injury at 250 g/ha / plant injury at 31 g/ha: Oryza sativa, read-out: Plant response rating, Rice. The procedure, abridged: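 2-leaf stage plants; pots flooded 3 cm above soil; compound applied into paddy water, depth maintained. Greenhouse 13–15 d. Visual rating vs controls, 0–100 (0 = no effect, 100 = complete control); dash = no result.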

The test system of assay [1] is goosegrass (Eleusine indica). Briefly: Test C pre-/postemergence: goosegrass. The source says: Seeds of plant species selected from blackgrass (Alopecurus myosuroides), bromegrass, downy (downy bromegrass, Bromus tectorum), foxtail, green (green foxtail, Setaria viridis), ryegrass, Italian (Italian ryegrass, Lolium multiflorum), winter wheat (Triticum aestivum), wild oat (Avena fatua), galium (catchweed bedstraw, Galium aparine), bermudagrass (Cynodon dactylon), surinam grass (Brachiaria decumbens), cocklebur (common cocklebur, Xanthium strumarium), corn (Zea mays), large crabgrass (Digitaria sanguinalis), woolly cupgrass (Eriochloa villosa), foxtail, giant (giant foxtail, Setaria faberii), goosegrass (Eleusine indica), johnsongrass (Sorghum halepense), kochia (Kochia scoparia), lambsquarters (Chenopodium album), morningglory (Ipomoea coccinea), nightshade (eastern black nightshade, Solanum ptycanthum), nutsedge, yellow (yellow nutsedge, Cyperus esculentus), pigweed (Amaranthus retroflexus), ragweed (common ragweed, Ambrosia elation), soybean (Glycine max), common (oilseed) sunflower (Helianthus annuus), Russian thistle (Salsola kali) and velvetleaf (Abutilon theophrasti) were planted into a blend of loam soil and sand and treated preemergence with test chemicals formulated in a non-phytotoxic solvent mixture which included a surfactant.
At the same time, plants selected from these crop and weed species and also barley (winter barley, Hordeum vulgare), canarygrass (Phalaris minor), chickweed (common chickweed, Stellaria media) windgrass (Apera spica-venti) and deadnettle (henbit deadnettle, Lamium amplexicaule) were planted in pots containing Redi-Earth® planting medium (Scotts Company, 14111 Scottslawn Road, Marysville, Ohio 43041) comprising spaghnum peat moss, vermiculite, wetting agent and starter nutrients and treated with postemergence applications of test chemicals formulated in the same manner. Plants ranged in height from 2 to 18 cm (1- to 4-leaf stage) for postemergence treatments.
Treated plants and controls were maintained in a greenhouse for 13 to 15 days, after which time all species were compared to controls and visually evaluated. Plant response ratings, summarized in Table C, are based on a scale of 0 to 100 where 0 is no effect and 100 is complete control. A dash (-) response means no test result.

The test system of assay [2] is canarygrass (Phalaris minor). Briefly: Test D pre-/postemergence: canarygrass. The following applies: Postemergence. The source says: (§1) Seeds of plant species selected from bluegrass (annual bluegrass, Poa annua), blackgrass (Alopecurus myosuroides), canarygrass (Phalaris minor), chickweed (common chickweed, Stellaria media), galium (catchweed bedstraw, Galium aparine), bromegrass, downy (downy bromegrass, Bromus tectorum), field poppy (Papaver rhoeas), field violet (Viola arvensis), foxtail, green (green foxtail, Setaria viridis), deadnettle (henbit deadnettle, Lamium amplexicaule), ryegrass, Italian (Italian ryegrass, Lolium multiflorum), kochia (Kochia scoparia), lambsquarters (Chenopodium album), oilseed rape (Brassica napus), pigweed (Amaranthus retroflexus), Russian thistle (Salsola iberica), chamomile (scentless chamomile, Matricaria inodora), speedwell (bird's-eye speedwell, Veronica persica), barley, spring (spring barley, Hordeum vulgare), wheat, spring (spring wheat, Triticum aestivum), buckwheat, wild (wild buckwheat, Polygonum convolvulus), mustard, wild (wild mustard, Sinapis arvensis), oat, wild (wild oat, Avena fatua), radish, wild (wild radish, Raphanus raphanistrum), windgrass (Apera spica-venti), barley, winter (winter barley, Hordeum vulgare), and wheat, winter (winter wheat, Triticum aestivum) were planted into a silt loam soil and treated preemergence with test chemicals formulated in a non-phytotoxic solvent mixture which included a surfactant. At the same time, these same crop and weed species were planted in pots containing the planting medium comprising spaghnum peat moss, vermiculite, wetting agent and starter nutrients and treated with postemergence applications of the test chemicals formulated in the same manner. Plants ranged in height from 2 to 18 cm (1- to 4-leaf stage).
(§2) Treated plants and controls were maintained in a controlled growth environment for 14 to 21 days after which time all species were compared to controls and visually evaluated. Plant response ratings, summarized in Table D, are based on a scale of 0 to 100 where 0 is no effect and 100 is complete control. A dash (-) response means no test result.

The test system of assay [3] is bromegrass, downy (downy bromegrass, Bromus tectorum). Briefly: Test D pre-/postemergence: bromegrass, downy. The note with it: Postemergence.
Text: as §1, §2

In assay [4] the test system is field violet (Viola arvensis). Nature of the assay: Test D pre-/postemergence: field violet. The following applies: Postemergence.
Text: as §1, §2

The test system of assay [5] is speedwell (bird's-eye speedwell, Veronica persica). Nature of the assay: Test D pre-/postemergence: speedwell. The note with it: Postemergence.
Text: as §1, §2

Assay [6] deals with mustard, wild (wild mustard, Sinapis arvensis). Nature of the assay: Test D pre-/postemergence: mustard, wild. The note with it: Postemergence.
Text: as §1, §2

Assay [7] deals with wheat, winter (winter wheat, Triticum aestivum). Nature of the assay: Test D pre-/postemergence: wheat, winter. The following applies: Postemergence.
Text: as §1, §2

Where [8] appears, read: Flood (flooded paddy test), 62 g ai/ha, visual rating after 13 to 15 days.
The mark [9] stands for this setting: Flood (flooded paddy test), 125 g ai/ha, visual rating after 13 to 15 days.
Where [10] appears, read: Flood (flooded paddy test), 250 g ai/ha, visual rating after 13 to 15 days.
[11] abbreviates: Postemergence, 31 g ai/ha, scale 0 to 100 (0 no effect, 100 complete control).
[12] abbreviates: Postemergence, 62 g ai/ha, scale 0 to 100 (0 no effect, 100 complete control).
[13] abbreviates: Postemergence, 125 g ai/ha, scale 0 to 100, 0 no effect, 100 complete control.
The mark [14] stands for this setting: Postemergence, 250 g ai/ha, scale 0 to 100.
Setting [15] is: Preemergence, 31 g ai/ha, scale of 0 to 100, 0 is no effect, 100 is complete control.
Setting [16] is: Preemergence, 62 g ai/ha, scale of 0 to 100, 0 is no effect, 100 is complete control.
[17] abbreviates: Preemergence, 125 g ai/ha, scale 0 to 100, 0 no effect, 100 complete control.
Where [18] appears, read: Preemergence, 250 g ai/ha, scale 0 to 100, 0 no effect, 100 complete control.
[19] abbreviates: 31 g ai/ha, scale 0 to 100 (0 no effect, 100 complete control).
Setting [20] is: 62 g ai/ha, scale 0 to 100 (0 no effect, 100 complete control).
Setting [21] is: 125 g ai/ha, scale 0 to 100, 0 no effect, 100 complete control.
[22] abbreviates: 250 g ai/ha, scale 0 to 100 (0 no effect, 100 complete control).

Read-outs that look alike come from different tables or passages of the source.

Take `COc1nn(-c2ccc(C(F)(F)F)cc2)nc1Cn1ccc(C(F)(F)F)n1` [Compound 17, 4-methoxy-2-[4-(trifluoromethyl)phenyl]-5-[[3-(trifluoromethyl)-1H-pyrazol-1-yl]methyl]-2H-1,2,3-triazole]: in the assay on rice (Oryza sativa) (setting [8]), the plant injury at 62 g/ha was 15%. The plant injury at 125 g/ha in the assay with rice (Oryza sativa) (setting [9]) stood at 35%. Further, in the assay with rice (Oryza sativa) (setting [10]), the plant injury at 250 g/ha was determined as 45%. Moreover, the plant injury at 31 g/ha in the assay on rice (Oryza sativa) (Flood, 31 g ai/ha) is 10%.
`Cc1nn(-c2ccc(C(F)(F)F)cc2)nc1Cc1ccnc(C(F)(F)F)c1` [Compound 47, 4-[[5-methyl-2-[4-(trifluoromethyl)phenyl]-2H-1,2,3-triazol-4-yl]methyl]-2-(trifluoromethyl)pyridine]: the “Plant response rating, Goosegrass” value in assay [1] (setting [11]) came to 5; in assay [1] (setting [12]) it was 35; in assay [1] (setting [13]) it was 70; in assay [1] (setting [14]), 75; in assay [1] (setting [15]), 98; in assay [1] (setting [16]), 100. In addition, the “Plant response rating, Goosegrass” value in assay [1] (setting [17]) and in assay [1] (setting [18]) was 100 each time. The plant injury at 62 g/ha in the assay on rice (Oryza sativa) (setting [8]) was 50%. Further, the plant injury at 125 g/ha with rice (Oryza sativa) (setting [9]) was found to be 60%. Further, in the assay with rice (Oryza sativa) (setting [10]), the plant injury at 250 g/ha was determined as 60%. The plant injury at 31 g/ha in the assay on rice (Oryza sativa) (Flood, 31 g ai/ha) was determined as 30%.
In the case of `Cc1nn(-c2ccc(C(F)(F)F)cc2)nc1Cc1cccc(C(F)(F)F)c1` [Compound 124], the “Plant response rating, Goosegrass” value in assay [1] (Postemergence, 16 g ai/ha, scale 0 to 100, 0 no effect, 100 complete control) was 25; in assay [1] (setting [11]), 45; in assay [1] (setting [12]), 55; in assay [1] (setting [13]), 65. Moreover, the “Plant response rating, Rice” value is 15 with rice (Oryza sativa) (setting [9]); 20 in the assay on rice (Oryza sativa) (setting [10]); 0 with rice (Oryza sativa) (Flood, 31 g ai/ha); 0 in the assay with rice (Oryza sativa) (Flood, 62 g ai/ha).
With `CCc1nn(-c2ccc(C(F)(F)F)cc2)nc1Oc1cccc(OC(F)(F)F)c1` [Compound 125, 4-ethyl-5-[3-(trifluoromethoxy)phenoxy]-2-[4-(trifluoromethyl)phenyl]-2H-1,2,3-triazole], in the assay with rice (Oryza sativa) (setting [9]), the plant injury at 125 g/ha was determined as 0%. For the same compound, the plant injury at 250 g/ha with rice (Oryza sativa) (setting [10]) was 10%. For the same compound, the plant injury at 31 g/ha in the assay on rice (Oryza sativa) (Flood, 31 g ai/ha) amounted to 0%. Also, the plant injury at 62 g/ha with rice (Oryza sativa) (Flood, 62 g ai/ha) stood at 0%.
`Cc1nn(-c2ccnc(C(F)(F)F)c2)nc1Cc1ccnc(C(F)(F)F)c1` [Compound 137]: the results for the “Plant response rating, Goosegrass” value in assay [1] (setting [11]), in assay [1] (setting [12]) and in assay [1] (setting [13]) were 20, 25 and 65, respectively. The “Plant response rating: Canarygrass” value in assay [2] (setting [19]) is listed as 20; in assay [2] (setting [20]), 30; in assay [2] (setting [21]), 50; in assay [2] (setting [22]), 75. Also, the “Plant response rating, Canarygrass” value in assay [2] (16 g ai/ha, scale 0 to 100) turned out to be 10. Further, the “Plant response rating: Bromegrass, Downy” value in assay [3] (setting [19]) is on record as 15; in assay [3] (setting [20]) it was 20; in assay [3] (setting [21]), 30; in assay [3] (setting [22]) it was 40. In assay [3] (16 g ai/ha, scale 0 to 100), the “Plant response rating, Bromegrass, Downy” value is reported as 5. Besides, the “Plant response rating: Field Violet” value is given as 70 in assay [4] (setting [19]), 85 in assay [4] (setting [20]), 90 in assay [4] (setting [21]) and 95 in assay [4] (setting [22]). Moreover, in assay [4] (16 g ai/ha, scale 0 to 100), the “Plant response rating, Field Violet” value was 50. The “Plant response rating: Speedwell” value in assay [5] (setting [19]) came out at 70; in assay [5] (setting [20]), 85; in assay [5] (setting [21]), 95; in assay [5] (setting [22]), 100. Besides, in assay [5] (16 g ai/ha, scale 0 to 100), the “Plant response rating, Speedwell” value amounted to 70. Also, the “Plant response rating: Mustard, Wild” value in assay [6] (setting [19]) amounted to 60; in assay [6] (setting [20]) it was 80; in assay [6] (setting [21]), 95; in assay [6] (setting [22]), 100. For the same compound, the “Plant response rating, Mustard, Wild” value in assay [6] (16 g ai/ha, scale 0 to 100) is recorded as 50. The “Plant response rating: Wheat, Winter” value came out at 5 in assay [7] (setting [19]), 10 in assay [7] (setting [20]), 15 in assay [7] (setting [21]) and 20 in assay [7] (setting [22]). In addition, the “Plant response rating, Wheat, Winter” value in assay [7] (16 g ai/ha, scale 0 to 100) is 5.
With `Fc1ccc(-n2nc(Cc3ccnc(C(F)(F)F)c3)c(OCC(F)(F)F)n2)cc1` [Compound 142], the “Plant response rating, Goosegrass” value in assay [1] (setting [11]) stood at 35; in assay [1] (setting [12]) it was 35; in assay [1] (setting [13]), 70; in assay [1] (setting [14]), 90; in assay [1] (setting [15]), 100; in assay [1] (setting [16]), 100. For the same compound, the “Plant response rating, Goosegrass” value in assay [1] (setting [17]) and in assay [1] (setting [18]) was 100 in each case.

The values are drawn from patent US9302999B2, “Substituted triazoles as herbicides” (E. I. DU PONT DE NEMOURS AND COMPANY, priority 2012, dated 2016).
